Legend:
[1] = target: T1, Malonyl-CoA decarboxylase, mitochondrial (Homo sapiens, UniProt O95822); assay: Inhibition of human MCD
T1 sequence (O95822 whole entry): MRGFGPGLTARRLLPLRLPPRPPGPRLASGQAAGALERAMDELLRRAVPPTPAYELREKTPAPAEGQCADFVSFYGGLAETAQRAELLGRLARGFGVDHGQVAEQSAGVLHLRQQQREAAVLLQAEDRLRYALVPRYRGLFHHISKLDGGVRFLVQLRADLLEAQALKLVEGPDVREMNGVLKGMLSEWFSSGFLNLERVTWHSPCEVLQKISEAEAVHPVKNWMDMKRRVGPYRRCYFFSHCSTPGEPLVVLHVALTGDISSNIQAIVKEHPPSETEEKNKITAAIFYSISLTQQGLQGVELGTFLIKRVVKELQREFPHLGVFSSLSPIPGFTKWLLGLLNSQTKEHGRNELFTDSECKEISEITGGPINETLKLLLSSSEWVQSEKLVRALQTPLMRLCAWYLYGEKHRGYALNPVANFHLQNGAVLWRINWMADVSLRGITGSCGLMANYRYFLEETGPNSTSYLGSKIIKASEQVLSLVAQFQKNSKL

[2] = target: T2, Malonyl-CoA decarboxylase, mitochondrial (Mus musculus, UniProt Q99J39); assay: Inhibition of MCD in mouse hepatocytes by whole cell assay; assay type: cell-based, Hepatocyte
T2 sequence (Q99J39 whole entry): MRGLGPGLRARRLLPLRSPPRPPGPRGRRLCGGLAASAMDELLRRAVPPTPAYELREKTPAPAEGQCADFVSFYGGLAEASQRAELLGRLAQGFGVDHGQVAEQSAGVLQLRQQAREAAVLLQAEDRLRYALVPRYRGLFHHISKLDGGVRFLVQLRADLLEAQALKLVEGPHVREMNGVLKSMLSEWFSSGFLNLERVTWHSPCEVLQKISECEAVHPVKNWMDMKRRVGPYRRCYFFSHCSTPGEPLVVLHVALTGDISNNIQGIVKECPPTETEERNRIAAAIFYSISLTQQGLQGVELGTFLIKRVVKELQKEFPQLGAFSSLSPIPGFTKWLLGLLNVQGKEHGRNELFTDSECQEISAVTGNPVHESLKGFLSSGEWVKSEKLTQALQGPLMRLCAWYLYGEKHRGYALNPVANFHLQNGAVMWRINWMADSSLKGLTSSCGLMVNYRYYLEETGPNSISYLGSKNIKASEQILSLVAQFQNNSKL

Mus musculus [3] = assay: Antiobesity activity in C57B6N mouse assessed as change in chronic food intake at 30 mg/kg, po; assay type: functional
Mus musculus [4] = assay: Antiobesity activity in C57B6N mouse assessed as change in body weight at 100 mg/kg, po; assay type: functional
Mus musculus [5] = assay: Antiobesity activity in C57B6N mouse assessed as change in hyphalamic malonyl-coA level at 30 mg/kg, po; assay type: functional
Mus musculus [6] = assay: Antiobesity activity in C57B6N mouse assessed as change in chronic food intake at 100 mg/kg, po; assay type: functional
Mus musculus [7] = assay: Antiobesity activity in C57B6N mouse assessed as change in hyphalamic malonyl-coA level at 100 mg/kg, po; assay type: functional
Mus musculus [8] = assay: Antiobesity activity in C57B6N mouse assessed as change in body weight at 30 mg/kg, po; assay type: functional
Mus musculus [9] = assay: Antidiabetic activity in C57B6N mouse assessed as decrease in beta-hydroxybutyrate at 30 mg/kg, po; assay type: functional; set-up: scale not given: the % may be the effect or the level left
Mus musculus [10] = assay: Antidiabetic activity in C57B6N mouse assessed as blood glucose correction at 30 mg/kg, po; assay type: functional
Mus musculus [11] = assay: Antidiabetic activity in C57B6N mouse assessed as decrease in beta-hydroxybutyrate at 10 mg/kg, po; assay type: functional; set-up: scale not given: the % may be the effect or the level left
Mus musculus [12] = assay: Antidiabetic activity in C57B6N mouse assessed as blood glucose correction at 3 mg/kg, po; assay type: functional
Mus musculus [13] = assay: Antidiabetic activity in C57B6N mouse assessed as decrease in beta-hydroxybutyrate at 3 mg/kg, po; assay type: functional; set-up: scale not given: the % may be the effect or the level left
Mus musculus [14] = assay: Antidiabetic activity in C57B6N mouse assessed as blood glucose correction at 10 mg/kg, po; assay type: functional

SMILES: Cc1cc(C(O)(C(F)(F)F)C(F)(F)F)ccc1C(Cc1cc[n+]([O-])cc1)c1ccc(OC(F)F)c(OC(F)F)c1 (configuration not stated)
- IC50 [1]: 13.3 nM

SMILES: OC(c1cnc(C2CCN(c3ccc(F)cc3)CC2)s1)(C(F)(F)F)C(F)(F)F
- EC50 [2]: > 20000 nM

SMILES: NC(=O)c1cccc(N2CCC(c3ncc(C(O)(C(F)(F)F)C(F)(F)F)s3)CC2)c1
- EC50 [2]: 2000 nM

SMILES: O=C(O)c1cccc(C2CCN(c3ncc(C(O)(C(F)(F)F)C(F)(F)F)s3)CC2)c1
- EC50 [2]: 230 nM

SMILES: NC(=O)c1cccc(C2CCN(c3ncc(C(O)(C(F)(F)F)C(F)(F)F)s3)CC2)c1
- EC50 [2]: 950 nM

SMILES: NC(=O)C1(c2ccccc2)CCN(c2ncc(C(O)(C(F)(F)F)C(F)(F)F)s2)CC1
- Activity (Mus musculus [3]): -2.4%
- Activity (Mus musculus [4]): 14.3%
- Activity (Mus musculus [5]): 29%
- Activity (Mus musculus [6]): -5.7%
- Activity (Mus musculus [7]): 70%
- Activity (Mus musculus [8]): -5.5%
- Activity (Mus musculus [9]): 60%
- Activity (Mus musculus [10]): 41%
- EC50 [2]: 1100 nM

SMILES: CNC(=O)C1(c2ccccc2)CCN(c2ncc(C(O)(C(F)(F)F)C(F)(F)F)s2)CC1
- EC50 [2]: 640 nM

SMILES: OC(c1cnc(N2CCN(c3ccc(F)c(F)c3)CC2)s1)(C(F)(F)F)C(F)(F)F
- EC50 [2]: > 20000 nM

SMILES: NC(=O)C1(c2cccc(C(=O)O)c2)CCN(c2ncc(C(O)(C(F)(F)F)C(F)(F)F)s2)CC1
- EC50 [2]: 150 nM

SMILES: CS(=O)(=O)NC(=O)C1(c2ccccc2)CCN(c2ncc(C(O)(C(F)(F)F)C(F)(F)F)s2)CC1
- Activity (Mus musculus [11]): 53%
- Activity (Mus musculus [9]): 60%
- Activity (Mus musculus [10]): 48%
- EC50 [2]: 500 nM
- Activity (Mus musculus [12]): 28%
- Activity (Mus musculus [13]): -12%
- Activity (Mus musculus [14]): 53%

SMILES: NC(=O)c1cccc(N2CCN(c3ncc(C(O)(C(F)(F)F)C(F)(F)F)s3)CC2)c1
- Activity (Mus musculus [3]): 0.8%
- Activity (Mus musculus [4]): -2.2%
- Activity (Mus musculus [5]): 50%
- Activity (Mus musculus [6]): 0.8%
- Activity (Mus musculus [7]): 36%
- Activity (Mus musculus [8]): -3.3%
- Activity (Mus musculus [9]): 78%
- Activity (Mus musculus [10]): 32%
- EC50 [2]: 1400 nM

SMILES: CNC(=O)c1cccc(N2CCN(c3ncc(C(O)(C(F)(F)F)C(F)(F)F)s3)CC2)c1
- Activity (Mus musculus [3]): -1.3%
- Activity (Mus musculus [4]): 20%
- Activity (Mus musculus [5]): 65%
- Activity (Mus musculus [6]): -12.4%
- Activity (Mus musculus [7]): 186%
- Activity (Mus musculus [8]): -2.1%
- Activity (Mus musculus [9]): 65%
- Activity (Mus musculus [10]): 30%
- EC50 [2]: 630 nM

— ChEMBL document CHEMBL1255206, “Design and synthesis of a new class of malonyl-CoA decarboxylase inhibitors with anti-obesity and anti-diabetic activities” (Bioorg Med Chem Lett, 2010)
